# According to the kinase profiling compilation of Christmann-Franck et al. (2016):
# Target: SGK1 (human) (UniProt O00141)
# Assay: Flashplate
# Sequence of SGK1 (human) (O00141 whole entry, looked up): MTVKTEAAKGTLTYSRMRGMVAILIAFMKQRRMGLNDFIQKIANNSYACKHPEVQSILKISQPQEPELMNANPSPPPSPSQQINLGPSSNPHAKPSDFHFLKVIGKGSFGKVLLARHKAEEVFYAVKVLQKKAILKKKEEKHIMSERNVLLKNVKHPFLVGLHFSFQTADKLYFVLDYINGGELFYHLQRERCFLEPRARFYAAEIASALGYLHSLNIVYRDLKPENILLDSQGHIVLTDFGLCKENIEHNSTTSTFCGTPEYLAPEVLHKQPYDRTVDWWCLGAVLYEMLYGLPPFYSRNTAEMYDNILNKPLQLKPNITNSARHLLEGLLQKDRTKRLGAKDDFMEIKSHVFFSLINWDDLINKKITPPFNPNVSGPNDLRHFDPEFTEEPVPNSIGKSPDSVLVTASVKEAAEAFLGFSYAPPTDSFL
row,Compound,Ki [µM]
1,O=C(Cc1ccccc1Cl)Nc1ccc2cn[nH]c2c1,> 10
2,NC(=O)c1sc2c(Br)ccc(Cl)c2c1N,3.16
3,Cn1cc(-c2cnc(N)c3c(-c4ccc(NC(=O)Nc5ccc(OC(F)F)cc5)cc4)csc23)cn1,> 10
4,OCCNc1cc2cc(-c3ccsc3)ccc2cn1,0.501
5,Nc1n[nH]c2cc(-c3ccc(NC(=O)Nc4cccc(C(F)(F)F)c4)cc3)ccc12,> 10
6,O=C(Nc1cccc(Cl)c1)Nc1ncc(CCNc2ncnc3ccsc23)s1,> 10
7,NC(=O)c1cn(-c2ccc(O)cc2Cl)c2cc(-c3ccncc3)ccc2c1=O,7.94
8,Nc1nccc2scc(-c3ccc(NC(=O)Nc4cccc(F)c4)cc3)c12,> 10
9,O=C1NCc2c1cccc2-c1ccc(Nc2nc3ccccc3[nH]2)cc1,5.01
10,COCCOCC#Cc1cc(-c2n[nH]c3c2C(=O)c2cc(CN4CCN(C)CC4)ccc2-3)cs1,> 10
11,COc1ccc(-c2ccc(NC(=O)Nc3cccc(Br)c3)cc2)c2c(N)noc12,> 10
12,CCOC(=O)c1cn(-c2ccc(O)cc2C)c2cc(-c3ccncc3)ccc2c1=O,> 10
13,CCOc1nc(C(=O)NCc2ccc(S(N)(=O)=O)cc2)cc(N)c1C#N,> 10
14,CC(=O)Nc1cc(N)c(C#N)c(-c2ccc3ccccc3c2)n1,> 10
15,O=C(NCc1ccccc1)c1ccc(-c2ccncc2)cc1,3.16
16,CC1=NN(c2ccc(C(=O)O)cc2)C(=O)/C1=C/c1c(C)c(C#N)c2nc3ccccc3n2c1O,> 10
17,Cn1cc(C(CN)c2cncc(/C=C/c3ccncc3)c2)c2ccccc21 (stereo not drawn),> 10
18,Cc1n[nH]c2ccc(-c3cncc(OC[C@@H](N)Cc4ccc(Cl)c(Cl)c4)c3)cc12,0.0794
19,CCCC(=O)Nc1n[nH]c2nc3ccccc3cc12,> 10
20,NC(=O)c1ccc(N[C@H]2CCCC[C@H]2N)nc1Nc1cccc(Cl)c1,> 6.31
21,Cc1n[nH]c2cccc(-c3ccc(NC(=O)Nc4cccc(C(F)(F)F)c4)cc3)c12,> 10
22,O=C(NNC(=S)Nc1ccc(Cl)cc1)C(O)(c1ccccc1)c1ccccc1,> 10

row,Compound,Ki [µM]
1,NCCCNS(=O)(=O)c1cccc(C(=O)Nc2ccc(-c3n[nH]c(=O)c4ccccc34)cc2)c1,> 10
2,CC1=NN(c2cccc(Br)c2)C(=O)/C1=C/c1c(C)c(C#N)c2nc3ccccc3n2c1O,> 10
3,NCCOc1cncc(/C=C/c2ccncc2)c1,> 10
4,COc1cc2c(N3CCN(C(=O)Nc4ccc(OC(C)C)cc4)CC3)ncnc2cc1OCCCN1CCCCC1,> 7.94
5,Cn1c2ccccc2c2c3c(c4c5ccccc5n(CCC#N)c4c21)CNC3=O,> 10
6,CC(C)NC(=O)COc1cccc(-c2nc(Nc3ccc4[nH]ncc4c3)c3ccccc3n2)c1,> 10
7,N[C@H](COc1cncc(-c2ccc3[nH]c(=O)oc3c2)c1)Cc1c[nH]c2ccccc12,5.01
8,COc1ccc(CNC(=O)Nc2ncc([N+](=O)[O-])s2)cc1,> 10
9,O=C1NCCc2[nH]c(-c3ccnc(/C=C/c4ccccc4)c3)cc21,1
10,COc1cc(/C=C(\C#N)c2nc3ccccc3[nH]2)c(Br)cc1O,6.31
11,COc1ccc(/C=C2/S/C(=N/c3ccccc3)NC2=O)cc1OC,> 10
12,CN1CCN([C@H]2CC[C@H](n3cc(-c4ccc(Oc5ccccc5)cc4)c4c(N)ncnc43)CC2)CC1,> 10
13,OCCCn1cnc(-c2ccc(F)cc2)c1-c1ccncc1,> 10
14,CN1CCC(C(=O)n2nc(N)c3cc(-c4cn(Cc5ccccc5)nn4)ccc32)CC1,7.94
15,Cc1cc(OC2CCCC2)c(NC(=O)Nc2cnc(C#N)cn2)cc1Cl,> 10
16,COc1ccc(-c2ccc(NC(=O)Nc3ccc(F)c(C)c3)cc2)c2c(N)noc12,> 10
17,COc1cc(-c2ccc3c(c2)Nc2ccc([N+](=O)[O-])cc2NC3=O)ccc1O,> 10
18,O=c1[nH]sc2c1c(=O)c1cc(F)c(NCc3ccccc3)c(F)c1n2C1CC1,> 10
19,O=C1NN=Cc2c[nH]c3cc(NC(=O)[C@@H]4C[C@H]4c4ccccc4)cc1c23,0.0398
20,Cc1cccc(NC(=O)Nc2ccc(-c3csc4ccnc(N)c34)cc2)c1,> 10
21,CCOc1nc(NC(=O)Cc2cc(OC)c(S(C)(=O)=O)cc2OC)cc(N)c1Cl,> 10
22,COc1ccc2c(NC(=O)Nc3cccc(Br)n3)ccnc2c1,> 10

row,Compound,Ki [µM]
1,Cc1nc(N)sc1-c1ccnc(Nc2ccc(N3CCOCC3)cc2)n1,0.251
2,CCNNc1cc(C)c(C#N)c2nc3ccccc3n12,> 10
3,COc1ccc(C(=O)Nc2nc3ccc(Cl)cc3s2)c(OC)c1,> 10
4,CN(c1ccccc1CNc1nc(N)nc2[nH]ccc12)S(C)(=O)=O,> 10
5,CSc1cnc2c(ccc3cnccc32)c1O,0.158
6,Nc1ncnc2c1c(I)nn2[C@@H]1O[C@H](CO)[C@@H](O)[C@H]1O,> 10
7,Cc1cccc(NC(=O)Nc2ccc(-c3ccc4nccnc4c3N)cc2)c1,> 10
8,O=C(O)c1ccc(N2C(=O)c3ccccc3C2=O)cc1O,> 10
9,COc1cccc([C@H](C)NC(=O)c2ccc(-c3ccncc3)cc2)c1,> 10
10,CCOc1nc(NC(=O)Cc2cc(OC)ccc2OC)cc(N)c1C#N,> 10
11,NC(=O)c1cccc2[nH]c(-c3ccc(NC(=O)c4cccc(S(=O)(=O)N5CCOCC5)c4)cc3)nc12,> 10
12,N[C@@H](COCc1ccccc1)COc1cncc(/C=C/c2ccncc2)c1,> 10
13,CC(C)(CO)CNc1nccc(-c2c(-c3ccc(F)cc3)nc3c(OCC(F)(F)F)nccn23)n1,> 10
14,CC(C)(CO)c1nnc2ccc(-c3c(-c4ccc(F)cc4F)nc4n3CCC4)nn12,> 10
15,N[C@H](COc1cncc(-c2ccc3c(c2)CC(=O)N3)c1)Cc1c[nH]c2ccccc12,1.26
16,Nc1ncnc2c1c(-c1cccc(OCc3ccccc3)c1)cn2[C@H]1C[C@H](CN2CCCC2)C1,> 10
17,Nc1n[nH]c2cccc(-c3ccc(NC(=O)Nc4ccccc4)cc3)c12,1
18,COc1cccc([C@@H](C)NC(=O)c2ccc(-c3ccncc3)cc2NCCCN)c1,0.398
19,Cc1nn(C)c2c1c(=O)c1cc(Cl)ccc1n2OCC(C)C,> 10
20,Cc1cccc(NC(=O)Nc2ccc(-c3csc4c(-c5cnn(C[C@@H](C)O)c5)cnc(N)c34)cc2)c1,> 10
21,O=c1c(NCCc2ccc(Oc3ccccc3)cc2)c(Nc2ccncc2)c1=O,> 10
22,CCCC(=O)Nc1n[nH]c2ccc(-c3cn(Cc4ccccc4)nn3)cc12,1

row,Compound,Ki [µM]
1,Cc1cccc(-c2c(-c3ccncc3)nc(NC[C@@H](N)Cc3ccccc3)n(C)c2=O)c1,> 10
2,O=C1NC(=O)C(c2cnc3ccccn23)=C1c1cn2c3c(cc(F)cc13)CN(C(=O)N1CCCCC1)CC2,> 10
3,NC(=O)c1cccc(-c2cnc3[nH]cc(-c4ccccc4)c3c2)c1,0.126
4,Nc1nonc1-n1nnc(C(=O)N/N=C/c2ccncc2)c1-c1ccccc1,> 10
5,CNc1ncnc2c1N=C(c1ccc(NC(=O)Nc3cccc(C(F)(F)F)c3)cc1)CCN2,> 10
6,O=C1CCCN1Cc1ccc2c(c1)[nH]c(=O)c1cccn12,> 10
7,CN(C)c1cccc2c(S(=O)(=O)N(CCN)c3cncc(-c4ccc5cnccc5c4)c3)cccc12,3.98
8,Nc1nnc(-c2cc3c(Oc4ccc(Cl)cc4)cncc3s2)o1,1.58
9,CCCOn1c2ccc(Cl)cc2c(=O)c2c(C)nn(C)c21,> 10
10,CSc1ccccc1CNc1ncc([N+](=O)[O-])c(NCC2CCC(CN)CC2)n1 (stereo not drawn),6.31
11,O=c1[nH]c2sc3c(c2c2nc(-c4cccnc4)nn12)CCCC3,> 10
12,O=C(NCc1ccc(Cl)cc1)c1cc2c(-c3ccccc3)n[nH]c2s1,1
13,Nc1c(-c2ccc(NC(=O)Nc3cccc(C(F)(F)F)c3)cc2)ccc2nccnc12,> 10
14,Cc1cc(OC[C@@H]2CC[C@H](C(=O)O)C2)c(NC(=O)Nc2cnc(C#N)cn2)cc1Cl,6.31
15,Cc1cnc(Nc2cccc(S(N)(=O)=O)c2)nc1Nc1ccc(OCC(N)=O)cc1,6.31
16,CC(C)N(C(=O)Nc1ccc2nc(-c3ccco3)c(-c3ccco3)nc2c1)C(C)C,> 10
17,CS(=O)(=O)NCCOc1cncc(-c2ccc3cnccc3c2)c1,3.98
18,Nc1ncnc2scc(C(=O)Nc3ccc(NC(=O)Nc4ccccc4)cc3)c12,> 10
19,N#Cc1ccc(-c2n[nH]c3c2Cc2ccc(OCCCCN4CCOCC4)cc2-3)cn1,> 10
20,CC(C)Nc1c(-c2ccc3[nH]ncc3c2)nc2ncccn12,1.26
21,Nc1nccc(-c2c(-c3ccc(F)cc3)ncn2C2CCNCC2)n1,6.31
22,Cc1ccc(NC(=O)Nc2ccc(-c3cccc4c3CNC4=O)cc2)cc1C,> 10

row,Compound,Ki [µM]
1,NCCCOc1cncc(/C=C/c2ccncc2)c1,> 10
2,O=c1c(NCc2ccccc2F)c(Nc2ccncc2)c1=O,0.794
3,N[C@H]1CC[C@H](Nc2nccc(-c3c[nH]c4ncccc34)n2)CC1,0.0501
4,Cc1ccc(F)c(NC(=O)Nc2ccc(-c3ccc4nccnc4c3N)cc2)c1,> 10
5,O=C(NC(CO)Cc1ccc(Cl)cc1)c1ccc(-c2ccncc2)cc1 (stereo not drawn),> 10
6,CC(C)Oc1nccn2c(-c3ccnc(NCC(C)(C)CO)n3)c(-c3ccc(F)cc3F)nc12,> 10
7,O=C(O)c1ccccc1Nc1ccnc(Nc2cccc(O)c2)n1,0.794
8,CC(=O)Nc1cccc(CNc2c(Nc3ccc4[nH]ncc4c3)c(=O)c2=O)c1,0.158
9,O=C(Nc1cnccn1)Nc1ccnc2c(C(F)(F)F)cccc12,> 10
10,Cn1c(NC[C@@H](N)Cc2ccccc2)nc(-c2ccncc2)c(-c2ccc3ccccc3c2)c1=O,> 7.94
11,Nc1ncnc2c1N=C(c1ccc(NC(=O)Nc3cccc(C(F)(F)F)c3)cc1)CCN2,2.51
12,Oc1ccc(-c2nc(-c3ccc(F)cc3)c(-c3ccncc3)[nH]2)cc1,> 6.31
13,O=C(NCCCCCCNC(=O)Nc1cccnc1)Nc1cccnc1,> 10
14,CSc1ccc2nc3c(c(Cl)c2c1)CCNC3=O,> 10
15,COc1ccc(CNc2c(Nc3ccc4[nH]ncc4c3)c(=O)c2=O)cc1,> 10
16,COc1cc(-c2ccc3c(c2)Nc2ccc(CCOc4ccc(N5CCOCC5)cc4)cc2NC3=O)ccc1CC#N,> 10
17,Cc1cc(NC(=O)Cc2ccc(-c3cccc4[nH]nc(N)c34)cc2)ccc1F,1.26
18,Oc1ccc(-c2n[nH]c(Nc3cccc(Cl)c3)c2-c2ccc(O)cc2)cc1,0.631
19,N#Cc1ncc2nc1OCCCCCOc1cc(CCCO)c(Cl)cc1NC(=O)N2,> 10
20,CC(C)(C)c1ccc2nc(-c3n[nH]c4ccccc34)[nH]c2c1,1.26
